Here are results for 2 molecules from article PMC6434189, “Peperomin E and its orally bioavailable analog induce oxidative stress-mediated apoptosis of acute myeloid leukemia progenitor cells by targeting thioredoxin reductase” (Redox Biology, 2019).

The nature of series [1]: Stability of the analytes in rat plasma (UFLC-MS/MS). The conditions noted are these: for Freeze-thaw 3 cycles RE (%) / Store at -20℃ for 24h RE (%) / Store at auto-sampler RE (%): rat plasma, n=6; for stability in rat plasma samples: −20 °C for 15 days, three freeze/thaw cycles, room temperature 6 h, autosampler 4 °C 12 h. The class given is in vitro ADME.
Series [2] relates to Trx1 in KG-1a CD34+ cells. Kind of series: Trx1 redox state assay (PAO-Sepharose pull down). The conditions noted are these: 5 μM, 24 h. The format is cell-based, human. How it is done:
The redox state of Trx1 was determined using Liu's method. Phenylarsine oxide (PAO)-Sepharose was prepared by immobilization of PAO on Sepharose 4B according to Liu's report. The reduced form was pulled down on the Sepharose, while the oxidized form remained in the solution. Briefly, the KG-1a CD34^+ cells were treated with 5 μM PepE/DMAPE or vehicle control (DMSO) for 24 h. The cellular proteins were extracted by RIPA buffer and quantified by the Bradford method. The fully oxidized and reduced controls were prepared by incubating the non-treated cell lysate with diamide (2 mM) and TCEP (2 mM) for 1 h at 37 °C, respectively. The cell lysates were then incubated with PAO-sepharose on a rotating shaker for 1 h at room temperature. The supernatant was collected and the PAO-sepharose was washed with Tris-EDTA buffer. Then, the reduced Trx1 was eluted using Tris-EDTA buffer containing DPMS (10 mM). All samples were separated on SDS-PAGE and electrotransferred to PVDF membrane for western blot analyses. The bands were analyzed using Gel-pro 32 software.

Series [3] relates to TrxR1 KD cells (KG-1a CD34+). Description: CCK-8 viability in TrxR1 knockdown KG-1a CD34+ cells. The class given is cell-based, human. The conditions noted are these: 48 h. Here is the method: (§1) Unless otherwise mentioned, 2 × 10^4 cells were seeded at 96-well plates (Corning, New York, USA) in the IMDM-based serum-free media for 1 h. Then, the cells were incubated with different concentrations of PepE and DMAPE at 37 °C in a 5% CO2 incubator for 48 h. At the end of the treatment, 10 μL CCK-8 solution was added to each well and incubated for an additional 2 h at 37 °C, and the absorbance at 450 nm was measured with a microplate reader (Thermo Scientific, Multiskan GO, Finland). Inhibition ratio (%) was calculated as [(absorbance of control − absorbance of the test sample)/absorbance of control] x 100%.
For TrxR1 knockdown experiment, KG-1a CD34^+ cells were seeded in a six-well plate at 2.5 × 10^5/well in antibiotic-free IMDM medium for 24 h; then cells were washed once with 2 ml of shRNA transfection medium (Santa Cruz Biotech, sc-108062) and transfected with either TrxR1 shRNA plasmid (Santa Cruz Biotech, sc-36750-SH) or Control shRNA plasmid (negative control, Santa Cruz Biotech, sc-108060) according to the manufacturer's instructions. Briefly, for each transfection, 0.1 ml of shRNA (TrxR1 or control) duplex solution (containing 1 μg of shRNA plasmids) and 0.1 ml of transfection reagent (Santa Cruz Biotech, sc-108061) were gently mixed and incubated at room temperature for 30 min. […] The knockdown efficiencies were evaluated by western blot and RT-qPCR analyses.

A further series deals with primary CD34+ AML cells. Kind of series: CCK-8 cell viability assay on primary CD34+ AML cells. The class given is cell-based, human. The conditions noted are these: for viability at 6 µM: Homo sapiens, 48 h, CCK-8, read-out: cells viable (average). Here is the method: The mononuclear cells were further enriched for CD34 positive cells using the MACS CD34 MicroBead kit following the manufacturer's protocol. Enriched CD34 cell-purity was measured by flow cytometry-based quantification of cells stained using an anti-CD34-FITC antigen. Isolated CD34^+ cells were pre-incubated in the IMDM-based serum-free media for 1 h before the addition of drugs. PepE was dissolved in DMSO to make a 100 mM stock solution and stored in aliquots at – 20 °C. The 100 mM stock solution was diluted with DMSO to 10 mM and then diluted with PBS to 1 mM before treating the cells at the indicated concentrations. DMAPE and Ara-C were diluted in PBS to 1 mM concentration before use.
as §1
(Formazan colour is commonly taken as a measure of viable cells.)

Details of series [4]: method as in earlier work. The conditions noted are these: formulated with phosphate acid; cited from earlier work.
Series [5] concerns TrxR1 overexpressed KG-1a cells (ACTV cells). Description: CCK-8 viability in TrxR1 overexpressed KG-1a cells. The class given is cell-based, human. To be noted: 48 h. Here is the method:
as §1
For TrxR1 overexpression experiment, KG-1a CD34^+ cells were seeded in a six-well plate at 2.5 × 10^5/well in antibiotic-free IMDM medium for 24 h, then cells were transfected with TrxR1 CRISPR activation plasmids (control CRISPR plasmids as a negative control) according to the manufacturer's instructions. Briefly, for each transfection, 0.15 ml of the Plasmid DNA solution (containing 3 μg of TrxR1 activation or control DNA plasmids) and 0.15 ml of diluted UltraCruz transfection reagent (Santa Cruz Biotech, sc-395739) were gently mixed and added to the cells. […] The activation efficiencies were evaluated by western blot and RT-qPCR analyses.

`COc1cc(C(c2cc(OC)c3c(c2)OCO3)[C@@H]2COC(=O)[C@H]2CN(C)CCO)cc2c1OCO2` [DMAPE, (2S,3S)-6-Methyl (hydroxyethyl) amino-2,6-dihydropeperomin E]: in series [1] (5 ng/ml), the “Freeze-thaw 3 cycles RE (%)” value was -13.1%, the “Store at -20℃ for 24h RE (%)” value was -11.0% and the “Store at auto-sampler RE (%)” value is listed as -11.3%. Also, in series [1] (200 ng/ml), the “Freeze-thaw 3 cycles RE (%)” value is given as 11.2%, the “Store at -20℃ for 24h RE (%)” value was 3.0% and the “Store at auto-sampler RE (%)” value is -1.3%. In series [1] (1000 ng/ml), the “Freeze-thaw 3 cycles RE (%)” value is recorded as -5.1%, the “Store at -20℃ for 24h RE (%)” value came to 3.3% and the “Store at auto-sampler RE (%)” value is listed as -3.7%. Besides, the “stability in rat plasma samples” value in series [1] is “stable”. The “oxidized form of Trx” value in series [2] is on record as “significantly increased”. Moreover, the “potency toward TrxR1 KD cells compared to CTRL KD cells” value in series [3] is “elevated potency”. In addition, the viability at 6 µM in the series with primary CD34+ AML cells came to 28.9%. Further, the “increased solubility in water compared to PepE” value in series [4] is on record as “more than 1000 fold”. In series [5], the “toxicity against ACTV cells vs CTRL ACTV cells” value is recorded as “significant lower toxicity”.

For the molecule `C=C1C(=O)OC[C@H]1C(c1cc(OC)c2c(c1)OCO2)c1cc(OC)c2c(c1)OCO2` [PepE, Peperomin E], in series [1] (5 ng/ml), the “Freeze-thaw 3 cycles RE (%)” value is given as -11.5%, the “Store at -20℃ for 24h RE (%)” value was determined as 4.4% and the “Store at auto-sampler RE (%)” value was -10.1%. For the same molecule, in series [1] (200 ng/ml), the “Freeze-thaw 3 cycles RE (%)” value was -13.2%, the “Store at -20℃ for 24h RE (%)” value is given as 11.9% and the “Store at auto-sampler RE (%)” value is -10.5%. In addition, in series [1] (1000 ng/ml), the “Freeze-thaw 3 cycles RE (%)” value is on record as -3.6%, the “Store at -20℃ for 24h RE (%)” value amounted to 1.7% and the “Store at auto-sampler RE (%)” value is -7.2%. The “stability in rat plasma samples” value in series [1] is given as “stable”. The “oxidized form of Trx” value in series [2] is recorded as “significantly increased”. Further, the “potency toward TrxR1 KD cells compared to CTRL KD cells” value in series [3] is recorded as “elevated potency”. In the series on primary CD34+ AML cells, the “concentration range inducing apoptosis of human primary CD34+ AML cells” value fell in the range of 4 to 6 µM and the viability at 6 µM came to 24%. In addition, the “toxicity against ACTV cells vs CTRL ACTV cells” value in series [5] was “significant lower toxicity”.
